Bounds are passed on as bounds.

As usually defined, the melting point is the temperature of the solid-liquid transition.

`CC1(c2cccc3ccccc23)NC(=O)NC1=O` (configuration not stated): the melting point was in the range of 105 to 107 °C.
The figure for `O=C(O)CCOc1cccc(Br)c1` is 60 to 69 °C; for `CCCCOc1ccc(-c2nnc(N)[nH]2)cc1` it is 200 to 202 °C.
`CCN(Cc1ccccc1)S(=O)(=O)c1cc(C(=O)O)ccc1OC` gave a melting point of 102 to 105 °C.
Then `O=C1Nc2c(ccc(Cl)c2Cl)C1=O`, with 203 to 205 °C; and `Cc1ccccc1-c1cc(N)n(CCO)n1`, with 128 to 130 °C.
The figure for `CN(C)C(=O)c1ccc(Cl)cc1N` is 65 to 67 °C; for `CC(C)(C)OC(=O)NCCCCC(=O)O` it is 43 to 45 °C.
The figure for `Nc1cccc(NC(=O)c2ccoc2)c1` is 120 to 122 °C; for `O=C(O)c1ccc(I)c(Cl)c1` it is 218 to 220 °C.
Regarding `COc1ccc(C)cc1-n1cc(C(=O)O)ccc1=O`, the melting point lay in the range of 244 to 246 °C.
The figure for `CC(C)(C)c1cccc(OCC(=O)O)c1` is 117 to 119 °C; for `COc1c(Cl)ccnc1O` it is 169 to 171 °C.
Then `O=C(O)Cc1csc(-c2cc(Br)cs2)n1`, with 129 to 131 °C.
Then `O=C(O)CCS(=O)(=O)c1ccccc1Cl`, with 132 to 134 °C; and `O=c1c2c([nH]c3ccc(Oc4ccccc4)cc13)CCCC2`, with 319 to 321 °C; and `CCOC(=O)Cc1nnc(S)n1Cc1ccco1`, with less than 17 °C.
`NC(Cc1ccc(Cl)cc1)=NO` registered a melting point of 96 to 98 °C.
As for `CC(C)Oc1ccc(C(=O)NCC(=O)O)cc1`, the melting point lay in the range of 154 to 156 °C.
The figure for `Cc1ccc(/C=C/C(=O)O)s1` is 160 to 162 °C.
Then `O=C(CC1CCCCC1)NC1CCC(C(=O)O)CC1` (configuration not stated), with 136 to 138 °C.
The figure for `COc1ccc(CC(=O)O)cc1S(=O)(=O)N1CCOCC1` is 116 to 118 °C; for `NC(=O)NCc1ccccc1F` it is 147 to 149 °C.
In the case of `O=C1NCCSC1Cc1ccccc1` (configuration not stated), the melting point was in the range of 107 to 109 °C.
The figure for `CC(C)(C)OC(=O)N1CCCC(C#N)C1` (configuration not stated) is 64 to 66 °C.
The figure for `CCC(Br)C(=O)c1ccc(NC(C)=O)cc1` (configuration not stated) is 107 to 109 °C; for `CC(C)Cn1c(=O)n(C)c(=O)c2cc(C(=O)O)cnc21` it is 219 to 221 °C; for `NC(=O)c1cc(F)ccc1N` it is 143 to 145 °C.
The figure for `Cn1cnc2cc(Br)ccc2c1=O` is 156 to 158 °C; for `CC(C)(C)c1ccc(C(=O)NC(=O)CCl)cc1` it is 120 to 122 °C.
In turn, `NNC(=O)c1cnccn1` came in with a melting point of 170 to 172 °C.
The figure for `Cc1ccccc1-c1csc(N)n1` is 80 to 82 °C; for `COc1cc(C(=O)O)ccc1OCC(=O)N1CCOCC1` it is 162 to 164 °C; for `O=C(O)C1CCCN(S(=O)(=O)c2ccc(Br)cc2)C1` (configuration not stated) it is 207 to 209 °C.
Then `NNC(=O)c1ccc(Cl)cc1F`, with 135 to 137 °C; and `CCCCS(N)(=O)=O`, with 43 to 45 °C.
Then `NS(=O)(=O)N1CCc2ccccc2C1`, with 159 to 161 °C; and `Cc1cncc(-n2ccnc2)c1`, with 88 to 90 °C.
In turn, `CCOc1ccc(S(=O)(=O)N2CCOCC2)cc1N` had a melting point of 165 to 167 °C.
As for `Nc1ccc(S(=O)C(F)F)cc1` (configuration not stated), the melting point lay within 83 to 85 °C.
Then `CCOC(=O)/C(C#N)=C\Nc1ccc(CC)cc1`, with 97 to 99 °C; and `CC(C)c1cc(N)n(-c2ncccn2)n1`, with 146 to 148 °C; and `Cn1c(S)nnc1CC1CCS(=O)(=O)C1` (configuration not stated), with 237 to 239 °C.
For `O=C(O)COc1ccc(C(=O)c2ccc(Cl)cc2)cc1`, the melting point was in the range of 185 to 187 °C.
As for `Nc1c(NCC2CCCO2)c(=O)[nH]c(=O)n1Cc1ccccc1` (configuration not stated), the melting point was in the range of 221 to 223 °C.
`CCOC(=O)c1c(CC(C)C)csc1NC(=O)CCl` displayed a melting point of 98 to 100 °C.
Then `CN(C)Cc1cccc(NC(=O)c2nonc2N)c1`, with 142 to 144 °C; and `Cc1ccc(NS(=O)(=O)c2cccc(C(=O)O)c2)cc1`, with 203 to 205 °C; and `Cc1ccccc1-c1noc(CC#N)n1`, with 79 to 83 °C.
Molecule `Brc1cc[nH]n1` gave a melting point of 74 to 76 °C.
Then `Cc1cccc(NC(=O)N2CCC(C(=O)O)CC2)c1`, with 189 to 191 °C; and `COc1cc(I)c(C(=O)O)cc1OC`, with 200 to 202 °C; and `CC(=CC(=O)O)c1ccccc1C(F)(F)F`, with 133 to 135 °C.
In turn, `NS(=O)(=O)N1CCCc2ccccc21` gave a melting point of 125 to 127 °C.
The figure for `O=C(O)CNC(=O)N1CCc2ccccc2C1` is 159 to 161 °C.
`Cc1cc2oc(=O)cc(CCl)c2cc1Cl`: the melting point fell in the range of 218 to 220 °C.
Then `Clc1ccc(Cn2cc(Br)cn2)cc1`, with 71 to 73 °C.
Then `CC(C)C(NC(=O)c1ccc(Br)cc1)C(=O)O` (configuration not stated), with 189 to 191 °C; and `O=S(=O)(Cl)CCOc1ccccc1`, with 37 to 39 °C; and `NNC(=O)c1cc([N+](=O)[O-])c[nH]1`, with 280 to 282 °C.
The figure for `Nc1cc([N+](=O)[O-])ccc1Nc1cccc(C(F)(F)F)c1` is 165 to 167 °C; for `CCOC(=O)c1cc(CC)sc1N` it is 69 to 71 °C.
Turning to `CCN1CC(C(=O)O)CC1=O` (configuration not stated), the melting point was 92 to 94 °C.
The figure for `N#Cc1cccc(NC(=O)CC2CC2)c1` is 89 to 91 °C; for `NC(=O)c1ccsc1N` it is 160 to 162 °C.
Then `COc1cc(-c2nc(CCl)cs2)ccc1O`, with 86 to 88 °C.
The figure for `Cc1noc(C)c1S(=O)(=O)NC(C)C(=O)O` (configuration not stated) is 135 to 137 °C.
As for `O=C(O)C1=CCCO1`, the melting point lay in the range of 98 to 100 °C.
The figure for `CCc1nnsc1C(=O)O` is 125 to 133 °C.
`Fc1cc2nc[nH]c2cc1F`: the melting point is 159 to 161 °C.
The figure for `O=C(O)C1CC1c1ccc(Br)cc1` (configuration not stated) is 122 to 124 °C.
Take `COCCOc1ccc(NC(=O)OCC(F)(F)F)cn1`: the melting point lay within 86 to 88 °C.
Then `CC(C)c1cc(C(=O)O)n(C)n1`, with 158 to 160 °C; and `CC(CC(=O)O)c1cccc(F)c1` (configuration not stated), with 33 to 35 °C.
`O=C(CCCl)Nc1ccc(S(=O)(=O)N2CCCC2)cc1` displayed a melting point of 174 to 176 °C.
`O=C(O)c1ccc(N2CCOCC2)c([N+](=O)[O-])c1` returned a melting point of 186 to 188 °C.
Then `O=C(O)c1ccc(CO)o1`, with 164 to 166 °C.
Then `O=C1c2ccccc2-c2n[nH]c3cccc1c23`, with 236 to 238 °C; and `Cc1ccc(C(=O)O)cc1NC(=O)c1ccco1`, with 230 to 232 °C.
Turning to `CC(CC(=N)N)NC(=O)OC(C)(C)C` (configuration not stated), the melting point lay in the range of 91 to 93 °C.
Then `Cc1nn2c(CO)c(C)nc2s1`, with 129 to 131 °C; and `Cc1cc(C)nc(-n2[nH]c(C(=O)O)cc2=O)n1`, with 246 to 248 °C.
Then `NC(=O)CCc1csc(N)n1`, with 141 to 143 °C.
Then `O=C(O)Cc1csc2nc(-c3ccccc3)cn12`, with 220 to 222 °C; and `N#Cc1ccc(Oc2ccc(N)cc2)cc1`, with 110 to 112 °C; and `CNS(N)(=O)=O`, with 49 to 51 °C.
Molecule `COc1ccc(-n2ccc(C(=O)O)n2)cc1` showed a melting point of 182 to 184 °C.

The values are drawn from a melting point compilation (Tetko et al.).
